Measurements from patent publication US20030144360A1, “Composition and method for modulating BAR/FXR receptor activity” (Allergan Sales, Inc., priority 2001, published 2003).
Residue numbers refer to the chain shown, from its start.

Columns and labels:
BAR:RXR heterodimers = molecular target: T1, BAR:RXR heterodimers (UniProt P19793+Q62735); test: Co-activator (GRIP1) gel shift displacement assay, BAR:RXR heterodimer; format: binding
T1 construct: nucleic acid regions encoding the following full-length proteins were cloned into a CMV expression vector; made in house; host or cells: receptors: in vitro translation; GST-GRIP1: E. coli
T1 sequence (Q62735 1-469): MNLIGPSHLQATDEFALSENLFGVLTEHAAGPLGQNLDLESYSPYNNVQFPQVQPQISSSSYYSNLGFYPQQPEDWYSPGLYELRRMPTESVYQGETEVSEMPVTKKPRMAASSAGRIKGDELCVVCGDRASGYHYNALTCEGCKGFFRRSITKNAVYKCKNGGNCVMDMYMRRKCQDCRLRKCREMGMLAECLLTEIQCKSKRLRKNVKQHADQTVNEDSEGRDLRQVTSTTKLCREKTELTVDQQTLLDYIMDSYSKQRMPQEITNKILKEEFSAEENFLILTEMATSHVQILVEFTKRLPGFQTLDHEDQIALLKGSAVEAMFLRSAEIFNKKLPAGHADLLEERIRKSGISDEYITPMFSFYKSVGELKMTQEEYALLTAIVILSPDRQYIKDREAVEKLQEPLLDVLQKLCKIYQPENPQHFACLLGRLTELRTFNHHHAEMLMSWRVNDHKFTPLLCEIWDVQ
T1 sequence (P19793 1-462): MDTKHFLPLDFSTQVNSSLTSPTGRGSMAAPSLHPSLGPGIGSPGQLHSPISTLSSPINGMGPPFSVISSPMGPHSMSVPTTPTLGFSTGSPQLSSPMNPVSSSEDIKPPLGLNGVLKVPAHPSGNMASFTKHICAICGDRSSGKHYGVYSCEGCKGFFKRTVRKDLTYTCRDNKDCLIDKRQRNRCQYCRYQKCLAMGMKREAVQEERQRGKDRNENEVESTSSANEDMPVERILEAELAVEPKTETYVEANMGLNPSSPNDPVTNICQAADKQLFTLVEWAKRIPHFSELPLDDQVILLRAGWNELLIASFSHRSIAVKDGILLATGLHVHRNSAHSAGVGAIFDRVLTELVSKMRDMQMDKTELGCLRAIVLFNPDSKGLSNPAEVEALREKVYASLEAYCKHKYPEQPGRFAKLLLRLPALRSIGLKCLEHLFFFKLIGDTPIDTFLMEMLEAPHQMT
Text: (§1) Coactivators, which bind agonist-activated nuclear receptors including, without limitation, RAR and RXR, function to assist the activated nuclear receptor exert its activity as a transcription factor. Characterized co-activators include CBP, p300, RIP140, SRC-1, ACTR, TIF2 (also called GRIP 1) and TIFI. In most cases coactivator will not bind the receptor in the absence of an agonist, moreover, receptor antagonists will often block coactivator binding, either directly or through the recruitment of a corepressor. Coactivator recruitment assays are therefore a valuable method for directly visualizing associative changes to a receptor caused by the addition of a prospective ligand.
GRIP 1 was expressed as a fusion protein with glutathione-S-transferase, an enzyme which selectively binds glutathione and can thus be used as an affinity reagent. See e.g., U.S. Pat. No. 5,654,176. The GST-GRIP1 fusion protein was expressed in E. coli and purified on glutathione-Sepharose columns. In vitro translated BAR/FXR\RXR (0.6-1.2 μl each) and GST-GRIP 1 (5 μg) were incubated for 30 min at room temperature with 100,000 cpm of the E. coli DNA polymerase Klenow fragment-labeled probes in 10 mM Tris (pH 8.0), 50 mM KCl, 6% glycerol, 0.05% NP-40, 1 mM DTT, 12.5 ng/μl poly dI-dC, and the indicated ligands. Complexes were electrophoresed through 5% polyacrylamide gel in […] (45 mM Tris-base, 45 mM boric acid, 1 mM EDTA) at room temperature. Oligonucleotide probes were made to identify specific receptor dimers; an optimized DR-1 (direct repeat 1; a nucleotide sequence motif to which RXR will bind) probe (5′-[…]) (SEQ ID NO: 12) was used for RXR homodimers and the IR-1 sequence of the IBABP promoter, to which the BAR/RXR heterodimer binds, was used for BAR/RXR heterodimers.
We next tested the ability of AGN34 to displace the GRIP-1 co-activator from BAR. […] Competition experiments using the BAR/RXRm heterodimer binds yielded the same results as obtained using the BAR/RXR heterodimer. (FIG. 4D).

BAR-RXRm heterodimers = molecular target: T2, BAR-RXRm heterodimers (Rattus norvegicus, UniProt Q62735); test: Co-activator (GRIP1) recruitment gel shift assay, BAR-RXRm heterodimer; format: binding; settings: for recruitment of co-activator GRIP1 (gel shift): 32P-labeled IBABP IR1 response element, range of doses
T2 construct: nucleic acid regions encoding the following full-length proteins were cloned into a CMV expression vector; made in house; host or cells: receptors: in vitro translation; GST-GRIP1: E. coli
T2 sequence (Q62735 1-469): T1 sequence (Q62735 1-469)
T2 sequence (P19793 1-462 D322P partner): T1 sequence (P19793 1-462) with D322P
Text: as §1
GRIP 1 was expressed as a fusion protein with glutathione-S-transferase, an enzyme which selectively binds glutathione and can thus be used as an affinity reagent. See e.g., U.S. Pat. No. 5,654,176. The GST-GRIP1 fusion protein was expressed in E. coli and purified on glutathione-Sepharose columns. In vitro translated BAR/FXR\RXR (0.6-1.2 μl each) and GST-GRIP 1 (5 μg) were incubated for 30 min at room temperature with 100,000 cpm of the E. coli DNA polymerase Klenow fragment-labeled probes in 10 mM Tris (pH 8.0), 50 mM KCl, 6% glycerol, 0.05% NP-40, 1 mM DTT, 12.5 ng/μl poly dI-dC, and the indicated ligands. Complexes were electrophoresed through 5% polyacrylamide gel in […] (45 mM Tris-base, 45 mM boric acid, 1 mM EDTA) at room temperature. […]
To address the question of whether the two identified compounds are ligands for BAR, we used an in vitro co-activator recruitment assay. […] Because the association between co-activator and receptor results in the formation of a new higher molecular weight species, the ligand-dependent recruitment of co-activator can be detected in gel shift assays and is commonly used as an indicator for ligand binding. […]

doses for full displacement of co-activator, LG 268 versus RXR:BAR-CDCA complexes (BAR:RXR heterodimers) | dissociation of BAR:RXR:GRIP1 complex (BAR:RXR heterodimers; 0.75 μM AGN 29 as agonist, increasing concentrations of AGN 34) | displacement of co-activator (GRIP1) (BAR:RXR heterodimers; heterodimers in which LG 268 was added) | competition (GRIP1 displacement) with BAR/RXRm heterodimer (BAR-RXRm heterodimers; AGN 29 as agonist, increasing AGN 34) | SMILES | formation of BAR:RXR:GRIP1 complex (BAR:RXR heterodimers; 0.75 μM) | recruitment of co-activator GRIP1 (gel shift) (BAR-RXRm heterodimers)
 |  |  |  | Cc1cc2c(cc1/C(=C/c1ccc(C(=O)O)cc1)[Si](C)(C)C)C(C)(C)CCC2(C)C [AGN 29, (Z)-4-[2-(3,5,5,8,8-Pentamethy1-5,6,7,8-tetrahydronaphthalen-2-yl)-2-(trimethylsilyl)vinyl]benzoic Acid] | form a complex | shifted the majority of the complexes
 |  |  |  | CCCC/C(=C\c1ccc(C(=O)O)cc1)c1ccc2c(c1)C(C)(C)CCC2(C)C [AGN 31, 4-[2-(5,5,8,8-Tetramethyl-5,6,7,8-tetrahydronaphthalen-2-yl)hex-1-enyl]benzoic Acid] |  | shifted the majority of the complexes
Much lower doses | progressive dissociation of that complex | fully displaces | same results | CCCCCCOc1c(\C(C)=C/C=C/C(C)=C/C(=O)O)cc(C(C)C)cc1C(C)C [AGN 34, (2E, 4E, 6Z)-7-(2-Hexyloxy-3,5-diisopropylphenyl)-3-methylocta-2,4,6-trienoic Acid] |  | 
